Measurements: patent publication US20240165074A1, “COMPOSITION OF THE PHYTOCOMPOUNDS INTENDED TO ENHANCE CYTOTOXIC ACTIVITY IN THE TREATMENT OF ACUTE LYMPHOBLASTIC LEUKEMIA” (GDANSKI UNIWERSYTET MEDYCZNY, priority 2021, published 2024)
Read-outs that look alike come from different tables or passages of the source.

Tests used:
[1] = defines dose 1×; cited from earlier work
[2] = tested on: MOLT-4 (the line of human ALL leukemia); experiment: MTT viability test on MOLT-4 cells; assay type: cell-based; details: for impact on viability of MOLT-4 cells: even at doses attainable exclusively in vitro (2×); for time after which viability of MOLT-4 neoplastic cells was reduced: bioavailable dose (1×), MTT
Method: (§1) 1. Viability Test Comprising the Use of a Test Cell Line (Cultures in the Presence of Individual Phytochemicals or their Mix) and the Control Line
(§2) The test is based on an assessment of the enzymatic activity of mitochondria using MTT, 3-(4,5-Dimethylthiazol-2-yl)-2,5-diphenyltetrazolium) bromide. Live and metabolically active cells reduce MTT to formazan crystals. In the test, a 96-well plate was seeded with […] per well in the volume of 50 μl of standard culture medium, followed by the addition of serial dilutions of the analysed compounds in the volume of 50 μl of the culture medium to obtain the final volume of 100 μl. An identical quantity of the solvent without the analysed phytocompounds was added to the control wells. The phytocompounds were stored dissolved in 100% DMSO, and therefore each dilution and the culture media added for control were supplemented with DMSO up to the non-toxic final concentration of 0.05%. The viability of the cells was assessed after a specific incubation time (24-, 48-, or 72-hours) by adding 20 μl of the yellow MTT solution to each well, and the colorimetric conversion of MTT into purple formazan crystals was assessed after 2-3 hours of incubation by dissolving the crystals with acidic isopropanol and taking a spectrophotometric measurement at the wavelength of 570 nm.
The measurements of cell viability with the application of this assay were performed on the following lines: MOLT-4 (the line of human ALL leukemia, a standard cell line used to assess the effects of pharmaceutical compounds on this type of leukemias) and BJ (human foreskin fibroblasts, primary cells grown in a short-term culture).

[3] = tested on: BJ (human foreskin fibroblasts); experiment: MTT viability test on BJ control cells; assay type: cell-based; details: 0.5×, 1×, 2×; 24 and 72 hours (FIG. 2)
Method: as §1
as §2, with “nm. […]” for “nm.”

Row | SMILES | maximum level of bioavailability of the compound in the blood [1] | impact on viability of MOLT-4 cells ([2]; single compound) | cytotoxicity to MOLT-4 cells [2] | time after which viability of MOLT-4 neoplastic cells was reduced ([2]; single compound) | time after which the biological effect (reduced MOLT-4 viability) was attained ([2]; dose 0.5×) | cytotoxicity to MOLT-4 cells ([2]; single compound, dose 2×) | viability of BJ cells [3]
1 | Oc1ccc(C=Cc2cc(O)cc(O)c2)cc1 [resveratrol] | 0.5 µg/mL | did not demonstrate any impact on the viability | – | – | – | – | –
2 | COc1cc(/C=C/C(=O)CC(=O)/C=C/c2ccc(O)c(OC)c2)ccc1O [curcumin] | 2.25 µg/mL | – | relatively highly cytotoxic | 72 h | – | – | –
3 | O=c1c(-c2ccc(O)cc2)coc2cc(O)cc(O)c12 [genistein] | 3 µg/mL | – | – | 48 h | 72 hours | relatively highly cytotoxic | do not decrease the viability
4 | O=c1c(O)c(-c2ccc(O)c(O)c2)oc2cc(O)cc(O)c12 [quercetin] | 1.5 µg/mL | did not demonstrate any impact on the viability | – | – | – | – | –
